Test results published in patent US8741944B2, “Anti-infective agents against intracellular pathogens” (priority 2007, dated 2014).

Tests used:
HCT-116 (Colon Cancer) = experiment: NCI DTP tumor cell line screen (SRB), HCT-116
Method: (§1) For a typical screening experiment, cells are inoculated into 96 well microtiter plates in 100 μL at plating densities ranging from 5,000 to 40,000 cells/well depending on the doubling time of individual cell lines. After cell inoculation, the microtiter plates are incubated at 37° C., 5% CO2, 95% air and 100% relative humidity for 24 h prior to addition of experimental drugs.
(§2) After 24 h, two plates of each cell line are fixed in situ with TCA, to represent a measurement of the cell population for each cell line at the time of drug addition (Tz). Experimental drugs are solubilized in dimethyl sulfoxide at 400-fold the desired final maximum test concentration and stored frozen prior to use. At the time of drug addition, an aliquot of frozen concentrate is thawed and diluted to twice the desired final maximum test concentration with complete medium containing 50 μg/ml gentamicin. Additional four, 10-fold or ½ log serial dilutions are made to provide a total of five drug concentrations plus control. Aliquots of 100 μl of these different drug dilutions are added to the appropriate microtiter wells already containing 100 μl of medium, resulting in the required final drug concentrations.
(§3) Following drug addition, the plates are incubated for an additional 48 h at 37° C., 5% CO2, 95% air, and 100% relative humidity. For adherent cells, the assay is terminated by the addition of cold TCA. Cells are fixed in situ by the gentle addition of 50 μl of cold 50% (w/v) TCA (final concentration, 10% TCA) and incubated for 60 minutes at 4° C. The supernatant is discarded, and the plates are washed five times with tap water and air dried. Sulforhodamine B (SRB) solution (1001) at 0.4% (w/v) in 1% acetic acid is added to each well, and plates are incubated for 10 minutes at room temperature. After staining, unbound dye is removed by washing five times with 1% acetic acid and the plates are air dried. Bound stain is subsequently solubilized with 10 mM trizma base, and the absorbance is read on an automated plate reader at a wavelength of 515 nm. For suspension cells, the methodology is the same except that the assay is terminated by fixing settled cells at the bottom of the wells by gently adding 50 μl of 80% TCA (final concentration, 16% TCA). Using the seven absorbance measurements [time zero, (Tz), control growth, (C), and test growth in the presence of drug at the five concentration levels (Ti)], the percentage growth is calculated at each of the drug concentrations levels. Percentage growth inhibition is calculated as: [(Ti−Tz)/(C−Tz)]×100 for concentrations for which Ti>/=Tz [(Ti−Tz)/Tz]×100 for concentrations for which Ti<Tz
(§4) Three dose response parameters are calculated for each experimental agent. […] The drug concentration resulting in total growth inhibition (TGI) is calculated from Ti=Tz. […] Values are calculated for each of these three parameters if the level of activity is reached; however, if the effect is not reached or is exceeded, the value for that parameter is expressed as greater or less than the maximum or minimum concentration tested.

[1] = tested on: A549/ATCC (Non-Small Cell Lung Cancer); experiment: NCI DTP tumor cell line screen (SRB), A549/ATCC
Method: as §1, §2, §3, §4

IGROV1 (Ovarian Cancer) = experiment: NCI DTP tumor cell line screen (SRB), IGROV1
Method: as §1, §2, §3, §4

MCF7 (Breast Cancer) = experiment: NCI DTP tumor cell line screen (SRB), MCF7; conditions: MCF7
Method: as §1, §2, §3, §4

OVCAR-8 (Ovarian Cancer) = experiment: NCI DTP tumor cell line screen (SRB), OVCAR-8; conditions: OVCAR-8
Method: as §1, §2, §3, §4

CAKI-1 (Renal Cancer) = experiment: NCI DTP tumor cell line screen (SRB), CAKI-1
Method: as §1, §2, §3, §4

T-47D (Breast Cancer) = experiment: NCI DTP tumor cell line screen (SRB), T-47D
Method: as §1, §2, §3, §4

UACC-62 (Melanoma) = experiment: NCI DTP tumor cell line screen (SRB), UACC-62
Method: as §1, §2, §3, §4

[2] = tested on: HOP-62 (Non-Small Cell Lung Cancer); experiment: NCI DTP tumor cell line screen (SRB), HOP-62
Method: as §1, §2, §3, §4

In the case of NCC(=O)Nc1ccc(-n2nc(C(F)(F)F)cc2-c2ccc3c(ccc4ccccc43)c2)cc1 [Compound 70, 2-Amino-N-{4-[5-(2-phenanthrenyl)-3-(trifluoromethyl)-1H-pyrazol-1-yl]-phenyl}-acetamide], the “Mean Optical Densities” value (HCT-116 (Colon Cancer); Log10 Concentration −4.0) is reported as 0.146, the “Mean Optical Densities” value (HCT-116 (Colon Cancer); Log10 Concentration −5.0) is reported as 0.104 and the “Percent Growth” value (HCT-116 (Colon Cancer); Log10 Concentration −5.0) is reported as −9%. For the same compound, the “Mean Optical Densities” value (HCT-116 (Colon Cancer); Log10 Concentration −6.0) was 0.452, the “Percent Growth” value (HCT-116 (Colon Cancer); Log10 Concentration −6.0) was 57% and the “Mean Optical Densities” value (HCT-116 (Colon Cancer); Log10 Concentration −7.0) was 0.665. The “Percent Growth” value (HCT-116 (Colon Cancer); Log10 Concentration −7.0) was 93%, the “Mean Optical Densities” value (HCT-116 (Colon Cancer); Log10 Concentration −8.0) was 0.751 and the “Percent Growth” value (HCT-116 (Colon Cancer); Log10 Concentration −8.0) was 107%. For the same compound, the TGI [1] was 2.96E−06, the “Mean Optical Densities” value ([1]; Log10 Concentration −4.0) was 0.252 and the “Mean Optical Densities” value ([1]; Log10 Concentration −5.0) was 0.155. The “Percent Growth” value ([1]; Log10 Concentration −5.0) was −57%, the “Mean Optical Densities” value ([1]; Log10 Concentration −6.0) was 0.831 and the “Percent Growth” value ([1]; Log10 Concentration −6.0) was 51%. The “Mean Optical Densities” value ([1]; Log10 Concentration −7.0) was 1.149, the “Percent Growth” value ([1]; Log10 Concentration −7.0) was 86% and the “Mean Optical Densities” value ([1]; Log10 Concentration −8.0) was 1.294. The “Percent Growth” value ([1]; Log10 Concentration −8.0) was 102%, the TGI (IGROV1 (Ovarian Cancer)) was 3.97E−06 and the “Mean Optical Densities” value (IGROV1 (Ovarian Cancer); Log10 Concentration −4.0) was 0.302. The “Mean Optical Densities” value (IGROV1 (Ovarian Cancer); Log10 Concentration −5.0) was 0.235, the “Percent Growth” value (IGROV1 (Ovarian Cancer); Log10 Concentration −5.0) was −49% and the “Mean Optical Densities” value (IGROV1 (Ovarian Cancer); Log10 Concentration −6.0) was 0.902. The “Percent Growth” value (IGROV1 (Ovarian Cancer); Log10 Concentration −6.0) was 74%, the “Mean Optical Densities” value (IGROV1 (Ovarian Cancer); Log10 Concentration −7.0) was 1.103 and the “Percent Growth” value (IGROV1 (Ovarian Cancer); Log10 Concentration −7.0) was 107%. The “Mean Optical Densities” value (IGROV1 (Ovarian Cancer); Log10 Concentration −8.0) was 1.044, the “Percent Growth” value (IGROV1 (Ovarian Cancer); Log10 Concentration −8.0) was 97% and the TGI (MCF7 (Breast Cancer)) was 2.72E−06. The “Mean Optical Densities” value (MCF7 (Breast Cancer); Log10 Concentration −4.0) was 0.255, the “Mean Optical Densities” value (MCF7 (Breast Cancer); Log10 Concentration −5.0) was 0.196 and the “Mean Optical Densities” value (MCF7 (Breast Cancer); Log10 Concentration −6.0) was 0.982. For the same compound, the “Mean Optical Densities” value (MCF7 (Breast Cancer); Log10 Concentration −7.0) was 1.541, the “Mean Optical Densities” value (MCF7 (Breast Cancer); Log10 Concentration −8.0) was 1.566 and the TGI (OVCAR-8 (Ovarian Cancer)) was 4.05E−06. For the same compound, the “Mean Optical Densities” value (OVCAR-8 (Ovarian Cancer); Log10 Concentration −4.0) was 0.306, the “Mean Optical Densities” value (OVCAR-8 (Ovarian Cancer); Log10 Concentration −5.0) was 0.269 and the “Percent Growth” value (OVCAR-8 (Ovarian Cancer); Log10 Concentration −5.0) was −33%. For the same compound, the “Mean Optical Densities” value (OVCAR-8 (Ovarian Cancer); Log10 Concentration −6.0) was 0.755, the “Percent Growth” value (OVCAR-8 (Ovarian Cancer); Log10 Concentration −6.0) was 51% and the “Mean Optical Densities” value (OVCAR-8 (Ovarian Cancer); Log10 Concentration −7.0) was 1.114. For the same compound, the “Percent Growth” value (OVCAR-8 (Ovarian Cancer); Log10 Concentration −7.0) was 102%, the “Mean Optical Densities” value (OVCAR-8 (Ovarian Cancer); Log10 Concentration −8.0) was 1.078 and the “Percent Growth” value (OVCAR-8 (Ovarian Cancer); Log10 Concentration −8.0) was 97%. The TGI (CAKI-1 (Renal Cancer)) was 2.27E−06, the “Mean Optical Densities” value (CAKI-1 (Renal Cancer); Log10 Concentration −4.0) was 0.335 and the “Mean Optical Densities” value (CAKI-1 (Renal Cancer); Log10 Concentration −5.0) was 0.147. The “Percent Growth” value (CAKI-1 (Renal Cancer); Log10 Concentration −5.0) was −75%, the “Mean Optical Densities” value (CAKI-1 (Renal Cancer); Log10 Concentration −6.0) was 1.126 and the “Percent Growth” value (CAKI-1 (Renal Cancer); Log10 Concentration −6.0) was 42%. The “Mean Optical Densities” value (CAKI-1 (Renal Cancer); Log10 Concentration −7.0) was 1.802, the “Percent Growth” value (CAKI-1 (Renal Cancer); Log10 Concentration −7.0) was 95% and the “Mean Optical Densities” value (CAKI-1 (Renal Cancer); Log10 Concentration −8.0) was 1.692. For the same compound, the “Percent Growth” value (CAKI-1 (Renal Cancer); Log10 Concentration −8.0) was 87%, the TGI (T-47D (Breast Cancer)) was 4.21E−06 and the “Mean Optical Densities” value (T-47D (Breast Cancer); Log10 Concentration −4.0) was 0.238. For the same compound, the “Mean Optical Densities” value (T-47D (Breast Cancer); Log10 Concentration −5.0) was 0.205, the “Percent Growth” value (T-47D (Breast Cancer); Log10 Concentration −5.0) was −52% and the “Mean Optical Densities” value (T-47D (Breast Cancer); Log10 Concentration −6.0) was 0.935. The “Percent Growth” value (T-47D (Breast Cancer); Log10 Concentration −6.0) was 86%, the “Mean Optical Densities” value (T-47D (Breast Cancer); Log10 Concentration −7.0) was 1.071 and the “Percent Growth” value (T-47D (Breast Cancer); Log10 Concentration −7.0) was 109%. For the same compound, the “Mean Optical Densities” value (T-47D (Breast Cancer); Log10 Concentration −8.0) was 0.921, the “Percent Growth” value (T-47D (Breast Cancer); Log10 Concentration −8.0) was 84% and the TGI (UACC-62 (Melanoma)) was 3.15E−06. For the same compound, the “Mean Optical Densities” value (UACC-62 (Melanoma); Log10 Concentration −4.0) was 0.364, the “Mean Optical Densities” value (UACC-62 (Melanoma); Log10 Concentration −5.0) was 0.137 and the “Percent Growth” value (UACC-62 (Melanoma); Log10 Concentration −5.0) was −80%. For the same compound, the “Mean Optical Densities” value (UACC-62 (Melanoma); Log10 Concentration −6.0) was 1.407, the “Percent Growth” value (UACC-62 (Melanoma); Log10 Concentration −6.0) was 79% and the “Mean Optical Densities” value (UACC-62 (Melanoma); Log10 Concentration −7.0) was 1.546. For the same compound, the “Percent Growth” value (UACC-62 (Melanoma); Log10 Concentration −7.0) was 94%, the “Mean Optical Densities” value (UACC-62 (Melanoma); Log10 Concentration −8.0) was 1.649 and the “Percent Growth” value (UACC-62 (Melanoma); Log10 Concentration −8.0) was 105%. The TGI [2] was 3.01E−06.
